Target: γ-secretase (Homo sapiens, UniProt P49768)
Assay: in vitro γ-secretase assay (HEK293 membrane fraction, recombinant APP substrate, Abeta ELISA)
Type: biochemical
Settings: γ-secretase inhibition; HEK293 membrane fraction solubilized in 0.25% CHAPSO, C-terminal 100 amino acids of human APP as substrate, Abeta detected by ELISA
Source text: The activity of test compounds can be evaluated in assays which measure the proteolytic cleavage of suitable substrates by γ-secretase activity. These can be cellular assays where e.g., a substrate of the γ-secretase is fused in its cytoplasmic domain to a transcription factor. Cells are transfected with this fusion gene and a reporter gene, e.g., firefly luciferase, which expression is enhanced by the transcription factor. Cleavage of the fused substrate by γ-secretase will lead to expression of the reporter gene which can be monitored in appropriate assays. The γ-secretase activity can also be determined in cell-free in vitro […] containing the γ-secretase complex is incubated with a suitable APP-derived substrate which is cleaved to the Abeta peptides. The amount of produced peptides can be determined with specific ELISA assays. Cell lines of neuronal origin secrete Abeta peptides which can be measured with the specific ELISA assay. Treatment with compounds which inhibit γ-secretase leads to a reduction of secreted Abeta thus providing a measure of inhibition. The in vitro assay of γ-secretase activity uses a HEK293 membrane fraction as a source of γ-secretase and a recombinant APP substrate. The latter consist of the C-terminal 100 amino acids of human APP fused to a 6× Histidin tail for purification which is expressed in E. coli in a regulatable expression vector, e.g. pEt15. This recombinant protein corresponds to the truncated APP fragment which results after […] of the extracellular domain and which constitutes the γ-secretase substrate. The assay principle is described in Li Y M et al, PNAS 97(11), 6138-6143 (2000). Hek293 cells are mechanically disrupted, and the microsomal fraction is isolated by differential centrifugation. The membranes are solubilized in detergent (0.25% CHAPSO) and incubated with the APP substrate. The Abeta peptides which are produced by γ-secretase cleavage of the substrate are detected by specific ELISA assays as described (Brockhaus M et al, Neuroreport 9(7), 1481-1486 (1998).

| IC50 [nM] | Compound |
| --- | --- |
| 4 | CC(C)(C(=O)NCC(F)(F)C(F)(F)F)C(=O)N[C@@H]1C(=O)Nc2ccccc2-c2ccccc21 [Example 67, 2,2-Dimethyl-N-((S)-6-oxo-6,7-dihydro-5H-dibenzo[b,d]azepin-7-yl)-N′-(2,2,3,3,3-pentafluoro-propyl)-malonamide] |
| 71 | CC(C(=O)NCC(F)(F)C(F)(F)F)C(=O)N[C@H]1CN(S(=O)(=O)C(F)(F)F)c2ccccc2N(C)C1=O (mixture of isomers) [Example 95, (2RS)-Methyl-N-((3S)-1-methyl-2-oxo-5-trifluorromethanesulfonyl-2,3,4,5-tetrahydro-1H-benzo[b][1,4]diazepin-3-yl)-N′-(2,2,3,3,3-pentafluoro-propyl)-malonamide] |
| 48 | CC(C(=O)NCC(F)(F)C(F)(F)F)C(=O)N[C@H]1CN(C(=O)OCC2CC2)c2ccccc2N(CC(F)(F)F)C1=O (mixture of isomers) [Example 109, 4-Oxo-(3S)-[(2RS)-(2,2,3,3,3-pentafluoro-propylcarbamoyl)-propionylamino]-5-(2,2,2-trifluoro-ethyl)-2,3,4,5-tetrahydro-benzo[b][1,4]diazepine-1-carboxylic Acid Cyclopropylmethyl Ester] |
| 90 | 5-Methyl-4-oxo-(3S)-[(2RS)-(2,2,3,3,3-pentafluoro-propylcarbamoyl)-propionylamino]-2,3,4,5-tetrahydro-benzo[b][1,4]diazepine-1-carboxylic acid cyclopropylmethyl estermalonamide [Example 106] |
